Experimental findings from patent US20250237649A1 (priority 2021, published 2025) are described below.

Like-named read-outs stand apart in the source and are kept apart here. Residues, ends and D or L forms follow the SMILES beside them. *: point of attachment. Dabcyl = CN(C)c1ccc(N=Nc2ccc(C(=O)*)cc2)cc1; EDANS = O=S(=O)(O)c1cccc2c(NCCN*)cccc12; pNA = O=[N+]([O-])c1ccc(N*)cc1; Cbz = O=C(OCc1ccccc1)*

In test [1] the target is T1, Hip1 (Mycobacterium tuberculosis, UniProt P9WHR3).
T1 sequence (P9WHR3 31-520): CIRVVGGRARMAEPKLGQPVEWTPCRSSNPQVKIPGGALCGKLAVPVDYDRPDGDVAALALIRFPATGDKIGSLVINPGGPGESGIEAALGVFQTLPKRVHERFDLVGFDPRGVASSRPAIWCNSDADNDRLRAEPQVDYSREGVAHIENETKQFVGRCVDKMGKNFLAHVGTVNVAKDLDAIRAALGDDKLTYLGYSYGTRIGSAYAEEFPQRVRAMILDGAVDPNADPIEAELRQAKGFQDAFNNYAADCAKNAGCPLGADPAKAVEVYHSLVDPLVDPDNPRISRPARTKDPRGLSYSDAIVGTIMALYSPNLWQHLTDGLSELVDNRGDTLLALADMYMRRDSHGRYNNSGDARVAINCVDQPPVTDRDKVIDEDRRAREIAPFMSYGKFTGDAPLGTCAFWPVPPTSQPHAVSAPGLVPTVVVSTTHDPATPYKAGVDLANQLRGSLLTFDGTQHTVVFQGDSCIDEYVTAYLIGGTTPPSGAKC
The test can be described thus: Km determination of Hip1 substrates (Michaelis-Menten). The class given is biochemical.

Test [2] has as its target T1, Hip1. The test is described as follows: Inhibition of Hip1 (Ki determination). The class given is biochemical.
Setting [3] is: read-out: Km (fluorescent substrate).

On to `CC(C)C[C@H](NC(=O)[C@H](CCCCN)NC(=O)[C@H](Cc1ccccc1)NC(=O)OCc1ccccc1)C(=O)Nc1ccc([N+](=O)[O-])cc1` [Cbz-Phe-Lys-Leu-pNa] (Cbz-Phe-Lys-Leu-pNA), for which the Km at Hip1 [1] (three independent determinations averaged, read-out: Km (chromogenic substrate)) is 0.421 µM.

Regarding `CC(C)C[C@H](NC(=O)CNC(=O)[C@H](CCCNC(=N)N)NC(=O)[C@H](CCCNC(=N)N)NC(=O)[C@H](C)NC(=O)[C@H](CCC(=O)O)NC(=O)c1ccc(N=Nc2ccc(N(C)C)cc2)cc1)C(=O)N[C@@H](CCC(=O)NCCNc1cccc2c(S(=O)(=O)O)cccc12)C(=O)N[C@@H](CCCNC(=N)N)C(=O)O` [UFNG1] (Dabcyl-EARRGLE(EDANS)R-OH), the Km at Hip1 [1] (setting [3]) was determined as 17.5 µM. On the same count and under the same terms, the result for `CC(C)C[C@H](NC(=O)CNC(=O)[C@H](CCC(N)=O)NC(=O)[C@H](CCCCN)NC(=O)[C@H](Cc1ccccc1)NC(=O)[C@H](CCC(=O)O)NC(=O)c1ccc(N=Nc2ccc(N(C)C)cc2)cc1)C(=O)N[C@@H](CCC(=O)NCCNc1cccc2c(S(=O)(=O)O)cccc12)C(=O)N[C@@H](CCCNC(=N)N)C(=O)O` [UFNG2, Dabcyl-Glu-Phe-Lys-Gln-Gly-Leu-Glu-(EDANS)-Arg] (Dabcyl-EFKQGLE(EDANS)R-OH) reads 37.6 µM. Molecule `COC(=O)C(=O)[C@H](C[C@@H]1CCNC1=O)NC(=O)[C@H](CCCCN)NC(=O)[C@H](Cc1ccccc1)NC(=O)OCc1ccccc1` [Inhibitor Compound 2, Cbz-Phe-Lys-Glnlac-CO—CO2Me] returned a Ki on Hip1 [2] of 0.117 ± 0.015 nM.

The Km is the substrate concentration at which the rate is half of its maximum. By Ki is commonly meant a dissociation constant, usually derived from enzyme kinetics or from competition with a known ligand. Lower therefore signals higher affinity.
